Structures can show the parent of a compound that is named as a salt. Values belong to the compound of their own block, whether it stands above or below them.
Legend:
[1] = tested on: cultured human mast cells (CHMC); experiment: CHMC low cell density ionomycin activation: tryptase assay; assay type: cell-based; details: read-out: LD Tryptase, CHMC, Iono, 3 pt
[2] = tested on: cultured human mast cells (CHMC); experiment: CHMC low cell density IgE activation: tryptase assay; assay type: cell-based; details: IgE activation
In short: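 Tryptase release, fluorogenic substrate, 30 min RT. Prior anti-IgE stimulation of CHMC, 30 min, 37 °C, after 1 hr preincubation at 1000–1500 cells/well in MT; unstimulated wells received MT.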

[3] = Homo sapiens, Mast cell, low cell density CHMC, tryptase release, 3 pt
[4] = Homo sapiens, Mast cell, low cell density CHMC, tryptase release, 3 pt, read-out: LD Tryptase, CHMC, IgE, 3 pt
[5] = Homo sapiens, Mast cell, low cell density CHMC, tryptase release, 8 pt, read-out: LD Tryptase, CHMC, IgE, 8 pt
[6] = Homo sapiens, Mast cell, low cell density CHMC, tryptase, 3 pt
[7] = Homo sapiens, Mast cell, low cell density CHMC, tryptase, 3 pt, read-out: LD Tryptase, CHMC, IgE, 3 pt
[8] = Homo sapiens, Mast cell, low cell density CHMC, tryptase, 8 pt, read-out: LD Tryptase, CHMC, IgE, 8 pt
[9] = low cell density CHMC, tryptase release, 3 point
[10] = low cell density CHMC, tryptase release, 3 point, read-out: LD Tryptase, CHMC, IgE, 3 pt
[11] = low cell density CHMC, tryptase release, 8 point, read-out: LD Tryptase, CHMC, IgE, 8 pt
[12] = low cell density CHMC, tryptase, 3 pt
[13] = low cell density CHMC, tryptase, 3 pt, read-out: LD Tryptase, CHMC, IgE, 3 pt
[14] = low cell density CHMC, tryptase, 8 pt, read-out: LD Tryptase, CHMC, IgE, 8 pt
[15] = Homo sapiens, Mast cell, low cell density CHMC, tryptase readout, 3 pt
[16] = Homo sapiens, Mast cell, low cell density CHMC, tryptase readout, 3 pt, read-out: LD Tryptase, CHMC, IgE, 3 pt
[17] = low cell density CHMC, tryptase readout, 3 pt
[18] = low cell density CHMC, tryptase readout, 3 pt, read-out: LD Tryptase, CHMC, IgE, 3 pt
[19] = low cell density CHMC, tryptase readout, 8 pt, read-out: LD Tryptase, CHMC, IgE, 8 pt
[20] = Homo sapiens, Mast cell, low cell density CHMC, tryptase release, 3 point
[21] = Homo sapiens, Mast cell, low cell density CHMC, tryptase release, 3 point, read-out: LD Tryptase, CHMC, IgE, 3 pt

SMILES: Cn1ncc2ccc(Nc3ncc(F)c(Nc4ccc5c(c4)NC(=O)C(C)(C)O5)n3)cc21 [Compound 769, N4-(2,2-Dimethyl-3-oxo-4H-benz[1,4]oxazin-6-yl)-5-fluoro-N2-(1-methylindazol-6-yl)-2,4-pyrimidinediamine Benzenesulfonic Acid Salt]
IC50 [1, 3]: > 10 µM
IC50 [2, 4]: < 10 µM
IC50 [2, 5]: < 10 µM

IC50 [1, 6]: > 10 µM
IC50 [2, 7]: < 10 µM
IC50 [2, 8]: < 10 µM
SMILES: CC(=O)N1CCN(c2cccc(Nc3ncc(F)c(Nc4ccc5c(c4)OCCO5)n3)c2)CC1 [Compound 426]

IC50 [1, 9]: > 10 µM
IC50 [2, 10]: < 10 µM
IC50 [2, 11]: < 10 µM
SMILES: CNC(=O)COc1ccc(Nc2nc(Nc3ccc(OC)c(Cl)c3)ncc2F)cc1Cl [Compound 602, N2-(3-Chloro-4-methoxyphenyl)-N4-[3-chloro-4-(N-methylamino)carbonylmethyleneoxyphenyl]-5-fluoro-2,4-pyrimidinediamine]

IC50 [1, 9]: < 10 µM
IC50 [2, 10]: < 10 µM
IC50 [2, 11]: < 10 µM
SMILES: COC(=O)COc1ccc(Nc2nc(Nc3ccc(OC)c(Cl)c3)ncc2F)cc1Cl [Compound 616, N4-[3-Chloro-4-(methoxycarbonyl)methyleneoxyphenyl]-N2-(3-chloro-4-methoxyphenyl)-5-fluoro-2,4-pyrimidinediamine]

SMILES: CC(C)(C)OC(=O)NCC(=O)NCc1ccc(Nc2ncc(F)c(Nc3ccc4c(c3)NC(=O)C(F)(F)O4)n2)cc1 [Compound 1309, N2-[4-[1-(tert-Butoxycarbonylamino)methylenecarbonylamino]methylphenyl]-N4-(2,2-difluoro-3-oxo-4H-benz[1,4]oxazin-6-yl)-5-fluoro-2,4-pyrimidinediamine]
IC50 [1, 12]: > 10 µM
IC50 [2, 13]: < 10 µM
IC50 [2, 14]: < 10 µM

SMILES: Cn1ncc2ccc(Nc3ncc(F)c(Nc4ccc5c(c4)NC(=O)C(C)(C)O5)n3)cc21 [Compound 766, N4-(2,2-Dimethyl-3-oxo-4H-benz[1,4]oxazin-6-yl)-5-fluoro-N2-(1-methylindazol-6-yl)-2,4-pyrimidinediamine DL-Camphor-1-sulfonic Acid Salt]
IC50 [1, 12]: > 10 µM
IC50 [2, 13]: < 10 µM
IC50 [2, 14]: < 10 µM

IC50 [1, 15]: > 10 µM
IC50 [2, 16]: > 10 µM
SMILES: CCOC(=O)N1CCN(c2cccc(Nc3ncc(F)c(Nc4cccc(NC5=NCCN5)c4)n3)c2)CC1 [Compound 1098, N2-[3-(4-Ethoxycarbonylpiperazino)phenyl]-5-fluoro-N4-[3-(N-2-imidazolin-2-yl)aminophenyl]-2,4-pyrimidinediamine]

IC50 [1, 3]: > 10 µM
IC50 [2, 4]: < 10 µM
IC50 [2, 5]: < 10 µM
SMILES: COCCn1ncc2ccc(Nc3ncc(F)c(Nc4ccc(Cl)c(Cl)c4)n3)cc21 [Compound 775, N4-(3,4-Dichlorophenyl)-5-fluoro-N2-[1-(2-methoxyethyl)indazol-6-yl]-2,4-pyrimidinediamine]

IC50 [1, 17]: > 10 µM
IC50 [2, 18]: < 10 µM
IC50 [2, 19]: < 10 µM
SMILES: COc1c(C)cc(Nc2ncc(F)c(Nc3ccc4c(n3)N(C)C(=O)C(C)(C)O4)n2)cc1Cl [Compound 1009, N2-(3-Chloro-4-methoxy-5-methylphenyl)-5-fluoro-N4-(3-oxo-2,2,4-trimethyl-5-pyrid[1,4]oxazin-6-yl)-2,4-pyrimidinediamine]

IC50 [1, 20]: > 10 µM
IC50 [2, 21]: < 10 µM
SMILES: Cc1cc(N(C)c2nc(Nc3ccc4cc[nH]c4c3)ncc2F)cc(C)c1Cl [Compound 599]

IC50 [1, 3]: > 10 µM
IC50 [2, 4]: < 10 µM
IC50 [2, 5]: < 10 µM
SMILES: COc1cc(Nc2nc(Nc3ccc4c(cnn4CCCOC(C)=O)c3)ncc2F)ccc1F [Compound 789, N2-[1-(3-Acetyloxypropyl)indazol-5-yl]-5-fluoro-N4-(4-fluoro-3-methoxyphenyl)-2,4-pyrimidinediamine]

IC50 [1, 9]: > 10 µM
IC50 [2, 10]: < 10 µM
IC50 [2, 11]: < 10 µM
SMILES: Cc1cc(Nc2ncc(F)c(Nc3ccc(OCCO)c(Cl)c3)n2)cc(C)c1Cl [Compound 622, N2-(4-Chloro-3,5-dimethylphenyl)-N4-[3-chloro-4-(2-hydroxyethyleneoxy)phenyl]-5-fluoro-2,4-pyrimidinediamine]

IC50 [1, 6]: > 10 µM
IC50 [2, 7]: < 10 µM
SMILES: CNC(=O)c1cc2cccc(Nc3ncc(F)c(Nc4ccc(OC)c(OC)c4)n3)c2[nH]1 [Compound 421, N4-(3,4-Dimethoxyphenyl)-5-fluoro-N2-[2-(N-methylaminocarbonyl)indol-7-yl]-2,4-pyrimidinediamine]

IC50 [1, 6]: < 10 µM
IC50 [2, 7]: < 10 µM
IC50 [2, 8]: < 10 µM
SMILES: CCn1ncc2ccc(Nc3ncc(F)c(Nc4ccc5c(c4)NC(=O)C(C)(C)O5)n3)cc21 [Compound 700, N4-(2,2-Dimethyl-3-oxo-4H-benz[1,4]oxazin-6-yl)-N2-(1-ethylindazol-6-yl)-5-fluoro-2,4-pyrimidinediamine]

IC50 ([1]; low cell density, 3 pt): > 10 µM
IC50 ([2]; low cell density, 3 pt, read-out: LD Tryptase, CHMC, IgE, 3 pt): < 10 µM
SMILES: CN1C(=O)C(C)(C)Oc2ccc(N(C)c3nc(Cl)ncc3F)nc21 [Compound 1005, 2-Chloro-5-fluoro-N4-methyl-N4-(3-oxo-2,2,4-trimethyl-5-pyrid[1,4]oxazin-6-yl)-4-pyrimidineamine]

IC50 [1, 17]: > 10 µM
IC50 [2, 18]: < 10 µM
IC50 [2, 19]: < 10 µM
SMILES: CN1C(=O)C(C)(C)Oc2ccc(Nc3nc(Nc4cccc(-c5ncco5)c4)ncc3F)nc21 [Compound 1012, 5-Fluoro-N2-[3-(oxazol-2-yl)phenyl]-N4-[3-oxo-2,2,4-trimethyl-5-pyrid[1,4]oxazin-6-yl]-2,4-pyrimidinediamine]

IC50 [1, 9]: > 10 µM
IC50 [2, 10]: < 10 µM
IC50 [2, 11]: < 10 µM
SMILES: COc1ccc(Nc2ncc(F)c(Nc3ccc(OCCO)c(Cl)c3)n2)cc1Cl [Compound 621, N4-[3-Chloro-4-(2-hydroxyethyleneoxy)phenyl]-N2-(3-chloro-4-methoxyphenyl)-5-fluoro-2,4-pyrimidinediamine]

IC50 [1, 3]: > 10 µM
IC50 [2, 4]: < 10 µM
IC50 [2, 5]: < 10 µM
SMILES: COCCCn1ncc2ccc(Nc3ncc(F)c(Nc4ccc(Cl)c(Cl)c4)n3)cc21 [Compound 797, N4-(3,4-Dichlorophenyl)-5-fluoro-N2-[1-(3-methoxypropyl)indazol-6-yl]-2,4-pyrimidinediamine]

IC50 [1, 17]: > 10 µM
IC50 [2, 18]: < 10 µM
SMILES: CC(C)(C)c1cc(Nc2ncc(F)c(Nc3ccc4c(n3)NC(=O)CO4)n2)n[nH]1 [Compound 1086, N2-(5-tert-Butylpyrazol-3-yl)-5-fluoro-N4-(3-oxo-2H,4H-5-pyrid[1,4]oxazin-6-yl)-2,4-pyrimidinediamine]

IC50 [1, 15]: > 10 µM
IC50 [2, 16]: < 10 µM
SMILES: CN1C(=O)C(C)(C)Oc2ccc(N(C)c3nc(Nc4ccc(-c5cnco5)cc4)ncc3F)cc21 [Compound 1026]

IC50 [1, 9]: > 10 µM
IC50 [2, 10]: < 10 µM
IC50 [2, 11]: < 10 µM
SMILES: OCCOc1ccc(Nc2nc(Nc3ccc4cc[nH]c4c3)ncc2F)cc1Cl [Compound 632, N4-[3-Chloro-4-(2-hydroxyethyleneoxy)phenyl]-5-fluoro-N2-(indol-6-yl)-2,4-pyrimidinediamine]

IC50 [1, 6]: > 10 µM
IC50 [2, 7]: > 10 µM
SMILES: CCOC(=O)N1CCN(c2ccc(Nc3ncc(F)c(NC4CNC4)n3)cc2)CC1 [Compound 1125]

IC50 ([1]; Homo sapiens, Mast cell, low cell density, 3 pt): > 10 µM
IC50 ([2]; Homo sapiens, Mast cell, low cell density, 3 pt, read-out: LD Tryptase, CHMC, IgE, 3 pt): > 10 µM
SMILES: COC(=O)c1cc(Nc2ncc(F)c(Nc3ccc4c(c3)NC(=O)C(C)(C)O4)n2)cc(-c2ncco2)c1 [Compound 517, N4-(2,2-Dimethyl-3-oxo-4H-benz[1,4]oxazin-6-yl)-5-fluoro-N2-[5-methoxycarbonyl-3-(oxazol-2-yl)phenyl]-2,4-pyrimidinediamine]

IC50 [1, 6]: > 10 µM
IC50 [2, 7]: > 10 µM
SMILES: CN1CCN(c2ccc(Nc3ncc(F)c(N[C@H]4CCN(Cc5ccccc5)C4)n3)cc2)CC1 [Compound 1182]

SMILES: CC(=O)N1CCN(c2ccc(Nc3ncc(F)c(NC4CN(C(=O)OC(C)(C)C)C4)n3)cc2)CC1 [Compound 1119, N2-[4-(4-Acetylpiperazino)phenyl]-N4-(1-tert-butoxycarbonylazetidin-3-yl)-5-fluoro-2,4-pyrimidinediamine]
IC50 [1, 6]: > 10 µM
IC50 [2, 7]: < 10 µM

IC50 [1, 20]: > 10 µM
IC50 [2, 21]: > 10 µM
SMILES: Cc1cc(N(C)c2nc(Nc3ccc(-c4ncco4)cc3)ncc2F)cc(C)c1Cl [Compound 596]

IC50 [1, 3]: > 10 µM
IC50 [2, 4]: < 10 µM
IC50 [2, 5]: < 10 µM
SMILES: COCCn1ncc2cc(Nc3ncc(F)c(Nc4ccc(OC)c(Cl)c4)n3)ccc21 [Compound 772, N4-(3-Chloro-4-methoxyphenyl)-5-fluoro-N2-[1-(2-methoxyethyl)indazol-5-yl]-2,4-pyrimidinediamine]

From patent US20220073536A1 (Rigel Pharmaceuticals, Inc., priority 2003, published 2022)
